# Reference: ChEMBL document CHEMBL4680133, “Novel nitroimidazole derivatives evaluated for their trypanocidal, cytotoxic, and genotoxic activities” (Eur J Med Chem, 2020)
# Experiment: Genotoxicity in human HepG2 assessed as survival at 213 uM measured after 24 hrs by micronucleus test (reference value: 100%)
# Assay type: toxicity, cell-based
# Details: HepG2 cells, read-out: Survival
smiles,measurement,value
Cn1cnc([N+](=O)[O-])c1-n1cc(C2CC2)nn1,"viability at 24 h, 213 µM",99%
